# How the values were obtained:
# dopamine D3 receptor = target: T1, dopamine D3 receptor (Homo sapiens, UniProt P35462); assay: Novascreen receptor affinity screen (competition with reference ligand), dopamine D3; type: binding; conditions: 1 μM Captodiamine competing with a reference ligand; read-out: percent target inhibition, dopamine D3 receptor
# T1 construct: Novascreen (contract screen)
# Experimental: The Structure (FIG. 9A), receptor affinity (FIG. 9B), pharmacokinetics (FIG. 9C) and growth factor modulation (FIG. 9D) of Captodiamine are provided. Analysis of receptor affinities was performed by Novascreen™ and those displacing >20% of the natural ligand are indicated by the filled boxes. Blood levels of Captodiamine were determined by GC mass spectroscopy. In separate samples taken from a cannulated jugular at increasing time intervals following a single intraperitoneal injection of tha drug (5 mg/kg). Growth factor analysis was performed using tissue homogenates and ELISA assays specific for each growth factor (Promega). Values were analysed using a Student t-test and those with a p value<0.05 were accepted as significant and are indicated with an asterisk.
# The higher the target inhibition value, the greater the affinity Captodiamine has for this particular receptor as it displaces a greater proportion of the reference ligand. This assay is an automated high throughput assay performed on cell lines that express only one type of receptor and was carried out by Novascreen (www.novascreen.com). Receptor affinity is a good starting point for determining the mechanism of action for a particular compound.
# C57B16 mice = assay: Novel object recognition (NOR) test; type: in vivo
# Excerpt: Before training the animals with objects, they are first allowed to acclimatize to the testing environment, a white Perspex box (30 cm by 20 cm) equipped with an overhead camera. After an acclimation session, the animals are ready for the training stage. This stage involves the introduction of two identical objects (Lego Duplo) to the environment before allowing the rodent to explore for a period of five minutes: Following the training period, the rodent is removed from the environment for a delay period which can range from 5 minutes to 24 hours, depending on the type of memory being tested. After the delay, the rodent is returned to the arena, where one of the original objects has been replaced by a new one, such as a glass container.
# The amount of time that the rodents spends exploring each object can be calculated by hand or by using a computer program receiving input from the overhead camera. The literature describes a variety of methods for analyzing results. One technique involves dividing the time spent exploring the novel object by the total time spent exploring either object, yielding % novel exploration. An alternative technique is used to calculate the discrimination ratio, defined as the difference in exploration time for the objects divided by total exploration time. The method of analysis should be suited to the specific experimental setup. […]
# rat pyloric muscle = assay: Electrical field stimulation (EFS)-mediated relaxation of isolated pyloric muscle; conditions: 25 μM Captodiamine; 10 min treatment, 10 μM-100 μM tested
# Experimental: Inhibition of pyloric relaxation by administration of captodiamine was performed as described in Kashyap P., Micci M., Pasricha S., Pasricha P., The D2/D3 Agonist PD 128907 (R-(+)-trans-3,4a,10b-Tetrahydro-4-Propyl-2H,5H-[1]Benzopyrano[4,3-b]-1,4-Oxazin-9-ol) Inhibits Stimulated Pyloric Relaxation and Spontaneous Gastric Emptying, 2007, Digestive Diseases and Sciences.
# Male Wistar rats were killed by cervical dislocation and decapitation. The stomach was removed and placed in oxygenated Krebs buffer (118 mM NaCl, 4.7 mM KCl, 1.2 mM KH2PO4, 1.2 mM MgSO4, 4.2 mM NaHCO3, 2 mM CaCl2, 10 mM glucose, 200 μM sulphinpyrazone and 10 mM Hepes, pH 7.4). […] The tissue was cut longitudinally along the mesenteric border and trimmed to 2 mm in width. At one end, the tissue was mounted onto an L-shaped electrode and placed into a 25 ml chamber containing Krebs buffer, maintained at 37° C. and continuously bubbled with 95% O2/5% CO2. The other end of the tissue was attached to an isometric force transducer using string sutured to tissue. Tension was monitored, recorded and analyzed by a digital recording device (PowerLab and Chart 5, ADInstruments). […] Spontaneous contraction of the pyloric strips were observed and recorded following the equilibration phase. […] The weight of the tissue was measured at the end of each session. […]
# T1 sequence (P35462 whole entry, species assumed): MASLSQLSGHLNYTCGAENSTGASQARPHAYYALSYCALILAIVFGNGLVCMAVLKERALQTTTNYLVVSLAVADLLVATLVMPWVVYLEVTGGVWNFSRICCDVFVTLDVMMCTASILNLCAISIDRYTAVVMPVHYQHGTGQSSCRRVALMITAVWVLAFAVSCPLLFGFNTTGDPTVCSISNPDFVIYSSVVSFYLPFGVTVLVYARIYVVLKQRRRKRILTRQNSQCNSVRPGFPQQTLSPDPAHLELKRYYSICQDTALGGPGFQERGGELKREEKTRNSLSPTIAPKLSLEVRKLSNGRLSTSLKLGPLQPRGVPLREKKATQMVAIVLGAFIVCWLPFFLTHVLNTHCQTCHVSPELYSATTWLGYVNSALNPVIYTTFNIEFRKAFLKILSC
smiles,measurement,setting,value
"CCCCSc1ccc(C(SCCN(C)C)c2ccccc2)cc1 (stereo not shown) [Captodiamine, 2-[(4-butylsulfanylphenyl)-phenyl-methyl]sulfanyl-N,N-dimethyl-ethanamin]",inhibition at 1 µM,dopamine D3 receptor,> 80%
same,"time investigating objects during the training phase, Novel Object Recognition Task","C57B16 mice; 3 mg/kg dose, one-tailed t-test",significantly longer investigating objects
same,"time exploring objects in training (day 1) and testing (day 2) phases, NOR",C57B16 mice; FIG. 8 right hand panel,more time exploring objects
same,effect on EFS-mediated relaxation of the rat pyloric muscle,rat pyloric muscle,attenuation of the EFS-mediatated relaxation

# — patent US8461389B2, “Psycho-pharmaceuticals” (University College Dublin, National University of Ireland, …, priority 2008, dated 2013)
